Assay results published in US6900202B2, “Di-substituted imineheterocyclic compounds” (priority 2000, dated 2005).

Tests used:
[1] = molecular target: T1, human α4β2 subtype of nicotinic acetylcholine receptors (Homo sapiens, UniProt P17787+P43681); type: cell-based
T1 construct: expressed in transfected cells; host or cells: Xenopus laevis oocytes injected with hnACh-R α4 and β2 cRNA (pSP64 polyA vector)
Experimental: The agonist effect in human α4β2 subtype of nicotinic acetylcholine receptors are examined by using human nicotinic acetylcholine receptors prepared in oocytes of Xenopus laevis, which is injected with cRNA from the corresponding cloning cDNA of human α4 and β2 subunits of nicotinic acetylcholine receptors, and to measure the expression of the electric response by adding the test compounds to perfusion solution by means of membrane potential holding method.
Agonist Activities at Human α4β2 Subtype of Nicotinic Acetylcholine Receptors
The agonist activities of the compounds of the present invention at human α4β2 subtype of nicotinic acetylcholine receptors was evaluated by the following method, which was modified method described by Papke R. L., Thinschmidt J. S., Moulton B. A., Meyer E. M. & Poirier A., Br. J. Pharmacol., 120, 429-438 (1997).
(1) Preparation of cRNA of Human α4β2 Subtype of Nicotinic Acetylcholine Receptors
The cloning of human nicotinic acetylcholine receptor (hnACh-R) α4 cDNA and hnAC-R β2 cDNA were performed, in accordance with the conventional manners, by synthesizing the each DNA primers corresponding to the sequences of hnACh-R α4 cDNA and hnACh-R β2 cDNA [Monteggia L. M. et al., Gene, 155, 189-193 (1995); and Anand R., & Lindstrom J., Nucl. Acids Res., 18, 4272 (1990)], and obtained hnACh-R α4 cDNA and hnACh-R β2 cDNA by polymerase chain reaction (PCR), respectively. The obtained hnACh-R α4 cDNA and hnACh-R β2 cDNA were inserted to the cRNA expression vector (pSP64 polyA) having SP6 RNA promoter to construct hnACh-R α4/pSP64 polyA and hnACh-R β2/pSP64 polyA, respectively. After cutting from expression vector by restriction enzyme (EcoRI), transcription was performed by affecting SP6 RNA polymerase in the presence of cap analogues to obtain hnACh-R α4 cRNA and hnACh-R β2 cRNA, respectively.
(2) Expression of Human α4β2 Subtype Nicotinic Acetylcholine Receptors in Xenopus Oocytes
Oocytes were purchased from Kitanihonseibustukyohzai Co., Ltd., which were already enucleated from Xenopus laevis, and used in this experiment.
The oocytes were treated with collagenase (Sigma type I; 1 mg/ml) in calcium-free modified Birth's solution (88 mM of NaCl, 1 mM of KCl, 2.4 mM of NaHCO3, 0.82 mM of MgSO4, 15 mM of HEPES, pH 7.6) under gently stirring at the room temperature for 90 minutes, and washed out the enzyme from the tissue. Then, oocytes were separated from ovarian follicle by tweezers, and isolated oocytes were placed in antibiotics containing modified Birth's solution (88 mM of NaCl, 1 mM of KCl, 2.4 mM of NaHCO3, 0.82 mM of MgSO4, 15 mM of HEPES, pH 7.6, and 0.1 v/v % of mixture solution containing of penicillin and streptomycin for incubation; Sigma Co.). Thus treated oocytes were injected with 50 nl of adjusted cRNAs (1.0 mg/ml), that is, each 50 ng of hnACh-R α4 cRNA and hnACh-R β2 cRNA per 1 oocyte by using automatic injector (NANOJECT; DRUMMOND […] CO.), and further incubated for 4-14 days at 19° C. In oocytes, heterogeneous quintuple [(α4)2(β2)3] was composed by translation of injected cRNAs, and ion channel receptors were constructed on cell membrane.
(3) Agonist Activities at Human α4β2 Subtype of Nicotinic Acetylcholine Receptors
The recordings of responses at human α4β2 subtype of nicotinic acetylcholine receptors by means of membrane potential holding method were performed as follow. […] Test compounds were added to the perfusion solution, and recorded the peak strength of induced inward electric current. […]

[2] = molecular target: T2, α4β2 subtype of nicotinic acetylcholine receptors (Rattus norvegicus, UniProt P09483+P12390); assay: Binding assay at α4β2 subtype of nicotinic acetylcholine receptors ([3H]-cytisine, rat brain membrane)
T2 construct: examined using rat brain membrane obtained from whole homogenized brain; from tissue; host or cells: whole brain membranes of Fischer-344 male rats
T2 sequence (P09483 31-630): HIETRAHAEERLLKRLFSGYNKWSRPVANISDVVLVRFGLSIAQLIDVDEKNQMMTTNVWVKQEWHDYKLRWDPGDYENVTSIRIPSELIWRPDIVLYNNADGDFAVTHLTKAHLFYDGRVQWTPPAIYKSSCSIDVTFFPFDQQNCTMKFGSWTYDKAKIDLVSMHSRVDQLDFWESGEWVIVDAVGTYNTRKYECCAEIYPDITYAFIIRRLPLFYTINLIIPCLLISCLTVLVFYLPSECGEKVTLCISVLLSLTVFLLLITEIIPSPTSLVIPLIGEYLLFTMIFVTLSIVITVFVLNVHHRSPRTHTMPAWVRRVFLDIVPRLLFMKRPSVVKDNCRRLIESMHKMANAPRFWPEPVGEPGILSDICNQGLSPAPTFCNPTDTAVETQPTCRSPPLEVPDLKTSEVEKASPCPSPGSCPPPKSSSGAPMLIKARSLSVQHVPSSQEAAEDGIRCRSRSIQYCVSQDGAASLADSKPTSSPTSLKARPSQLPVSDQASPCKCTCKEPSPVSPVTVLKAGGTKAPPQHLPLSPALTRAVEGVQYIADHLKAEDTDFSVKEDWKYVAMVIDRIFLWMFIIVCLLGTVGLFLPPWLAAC
T2 sequence (P12390 25-500): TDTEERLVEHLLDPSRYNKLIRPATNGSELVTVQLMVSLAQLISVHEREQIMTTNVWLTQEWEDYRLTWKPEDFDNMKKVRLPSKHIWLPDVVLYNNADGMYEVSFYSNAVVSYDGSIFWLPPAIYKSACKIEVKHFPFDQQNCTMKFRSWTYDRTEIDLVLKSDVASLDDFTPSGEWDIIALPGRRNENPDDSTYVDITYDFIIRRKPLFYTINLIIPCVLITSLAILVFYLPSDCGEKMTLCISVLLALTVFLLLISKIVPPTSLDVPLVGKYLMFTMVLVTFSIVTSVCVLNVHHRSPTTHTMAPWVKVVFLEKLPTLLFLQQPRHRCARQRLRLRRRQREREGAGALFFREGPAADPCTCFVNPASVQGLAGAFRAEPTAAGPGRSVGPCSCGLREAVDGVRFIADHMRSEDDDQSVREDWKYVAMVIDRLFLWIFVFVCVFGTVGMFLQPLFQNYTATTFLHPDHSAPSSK
Text: (§1) The methods for evaluating the binding capabilities of the compounds against nicotinic acetylcholine receptors are different by subtypes of receptors. The binding capabilities of the compounds at α4β2 nicotinic acetylcholine receptors are examined using rat brain membrane obtained from whole homogenized brain, and determining the inhibiting rate of the compounds against [^3H]-cytisine binding to said brain membrane. Furthermore, the binding capabilities of the compounds at α1β1γδ nicotinic acetylcholine receptors are examined using homogenized rat muscle, and determining the inhibiting rate of the compounds against [^3H]-α-bungarotoxin binding to said muscle membrane.
Binding Assays at α4β2 Subtype of Nicotinic Acetylcholine Receptors
The affinity of the compounds of the present invention to α4β2 subunit of nicotinic acetylcholine receptors was performed by the following method, which was modified method described by Pabreza L. A., Dhawan S. & Kellar K. J., Mol. Pharm., 39, 9-12 (1990), and by Anderson D. J. & Arneric S. P., Eur. J. Pharm., 253, 261-267 (1994).
(1) Preparation of Rat Brain Membrane Containing α4β2 subtype of Nicotinic Acetylcholine Receptors
Fischer-344 strain male rats (body weight: 200-240 g; 9 weeks old) obtained from Charles River Japan were used. Rats were housed in the breeding cage controlled of the room temperature at 23±1° C., and the humidity of 55±5% for 1 to 4 weeks. Rats (3 to 4 rats per a cage) were housed with lights on for 12 hours daily (from 7:00 to 19:00), and allowed free access to food and water.
Preparation of rat brain membrane containing α4β2 subtype of nicotinic acetylcholine receptors was performed as follow. That is, rat brains were isolated just after sacrificed by decapitation, washed with ice-cooled saline solution and then frozen at −80° C. with liquid nitrogen and stored till using. After thawing the frozen brain, the brain was homogenized in 10 volumes of buffer solution (50 mM of Tris-HCl, 120 mM of NaCl, 5 mM of KCl, 1 mM of MgCl2, 2mM of CaCl2; pH 7.4; 4° C.) using homogenizer (HG30, Hitachi Kohki Ltd.) for 30 seconds, and the homogenate were centrifuged under 1,000×G for 10 minutes at 4° C. The resulting supernatant was separated and the pellet was homogenized again with half volume of aforementioned prior buffer solution and centrifuged under the same conditions. Combined supernatant was further centrifuged under 40,000×G for 20 minutes at 4° C. The pellet was suspended in buffer solution and used for binding assays at receptors.
(2) Experiments of α4β2 Subtype of Nicotinic Acetylcholine Receptors Binding
Suspensions of membrane pellets containing 400-600 μg of protein were added to test tubes containing test compounds and [^3H]-cytisine (2 nM) in a final volume of 200 μl and incubated for 75 minutes in ice-cooled bath. The samples were isolated by vacuum filtration onto Whatman GF/B filters, which were prerinsed with 0.5% polyethylenimine just prior to sample filtration, using Brandel multi manifold cell harvester. The filters were rapidly washed with buffer solution (3×1 ml). The filters were counted in 3 ml of clearsol I (Nacalai Tesque Inc.).
The analyses of the experimental results were conducted by using the Accufit Competition Program (Beckman Ltd.).

[3] = molecular target: T3, α1β1γδ subtype of nicotinic acetylcholine receptors (Rattus norvegicus, UniProt P18916+P25108+P25109+P25110); assay: biochemical; type: binding
T3 construct: The centrifugation at 100,000×G for 60 minutes at 4° C. yielded the rat muscle extract as supernatant
T3 sequence (P25108 21-457): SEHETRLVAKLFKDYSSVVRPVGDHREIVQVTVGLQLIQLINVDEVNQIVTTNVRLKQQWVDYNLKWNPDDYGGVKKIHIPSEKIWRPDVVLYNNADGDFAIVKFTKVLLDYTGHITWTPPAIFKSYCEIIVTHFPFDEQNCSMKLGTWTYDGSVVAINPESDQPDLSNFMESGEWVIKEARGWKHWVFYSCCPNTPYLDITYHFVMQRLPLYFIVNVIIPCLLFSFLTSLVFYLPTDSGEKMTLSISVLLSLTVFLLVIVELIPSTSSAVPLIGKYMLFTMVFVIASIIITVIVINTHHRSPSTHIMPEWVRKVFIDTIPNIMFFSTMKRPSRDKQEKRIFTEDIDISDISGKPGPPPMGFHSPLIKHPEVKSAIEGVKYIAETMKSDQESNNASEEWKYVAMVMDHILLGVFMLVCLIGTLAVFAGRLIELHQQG
T3 sequence (P25109 24-501): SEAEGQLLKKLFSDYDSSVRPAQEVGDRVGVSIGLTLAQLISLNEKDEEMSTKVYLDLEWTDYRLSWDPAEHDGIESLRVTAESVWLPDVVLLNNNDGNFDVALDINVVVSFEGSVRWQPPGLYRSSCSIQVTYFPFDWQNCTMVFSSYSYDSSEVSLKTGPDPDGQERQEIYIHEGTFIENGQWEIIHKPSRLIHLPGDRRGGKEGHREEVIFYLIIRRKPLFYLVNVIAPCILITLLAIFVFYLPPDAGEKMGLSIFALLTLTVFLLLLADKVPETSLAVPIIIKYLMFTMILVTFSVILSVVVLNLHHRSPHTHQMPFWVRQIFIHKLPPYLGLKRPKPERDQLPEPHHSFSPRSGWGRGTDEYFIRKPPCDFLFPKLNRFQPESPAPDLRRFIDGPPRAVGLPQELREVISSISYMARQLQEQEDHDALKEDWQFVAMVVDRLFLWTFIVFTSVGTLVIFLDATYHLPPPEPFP
T3 sequence (P25110 22-517): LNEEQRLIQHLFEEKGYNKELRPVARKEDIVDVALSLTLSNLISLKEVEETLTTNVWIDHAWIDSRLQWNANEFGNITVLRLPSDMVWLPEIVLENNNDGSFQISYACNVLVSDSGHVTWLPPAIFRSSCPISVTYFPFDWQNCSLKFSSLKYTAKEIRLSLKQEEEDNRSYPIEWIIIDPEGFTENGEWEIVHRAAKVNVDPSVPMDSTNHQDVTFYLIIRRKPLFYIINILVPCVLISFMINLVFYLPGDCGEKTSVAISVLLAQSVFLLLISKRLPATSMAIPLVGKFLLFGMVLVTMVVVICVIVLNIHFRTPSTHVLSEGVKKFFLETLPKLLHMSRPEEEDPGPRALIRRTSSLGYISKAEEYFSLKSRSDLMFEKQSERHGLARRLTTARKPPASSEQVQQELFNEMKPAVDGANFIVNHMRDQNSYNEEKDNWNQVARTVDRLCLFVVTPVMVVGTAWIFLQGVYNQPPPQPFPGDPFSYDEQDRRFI
Text: as §1
Binding Assays at α1β1γδ Subtype of Nicotinic Acetylcholine Receptors
The affinity of the compounds of the present invention to α1β1γδ subtype of nicotinic acetylcholine receptors was measured by the following method, which was modified method described by Garcha H. S., Thomas P., Spivak C.
(1) Preparation of Rat Skeletal Muscles Containing α1β1γδ Subtype of Nicotinic Acetylcholine Receptors
The substantially same animals described in the Biological Experiment 1 were used.
The isolation of α1β1γδ subtype of nicotinic acetylcholine receptors was performed as follow. That is, rat posterior skeletal muscles were isolated just after sacrificed by decapitation, washed with ice-cooled saline solution and then frozen at −80° C. with liquid nitrogen and stored till using. After thawing the frozen muscles, tissue was homogenized (40% w/v) with buffer solution [2.5 mM of sodium phosphate buffer (pH:7.2), 90 mM of NaCl, 2 mM of KCl, 1 mM of EDTA, 2 mM of benzamidine, 0.1 mM of benzethonium chloride, 0.1 mM of PMSF, 0.01% of sodium azide] in Waring blender [Waring blender 34BL97; WARING PRODUCTS DIVISION DYNAMICS CORPORATION OF AMERICA) for 60 seconds. The homogenate were centrifuged under 20,000×G for 60 minutes at 4° C. The supernatant was separated and the resulting pellet was added to the same buffer (1.5 ml/g wet weight), and homogenized under the same conditions. Triton X100 (2% w/v) was added and the mixture was stirred for 3 hours at 4° C. The centrifugation at 100,000×G for 60 minutes at 4° C. yielded the rat muscle extract as supernatant. This was stored at 4° C. for up to 4 weeks, and used for binding assays at receptors.
(2) Experiments of α1β1γδ Subtype of Nicotinic Acetylcholine Receptors Binding
Receptors binding experiments were performed as follow. That is, the extract of rat muscle containing 600-900 μg of protein was added to test tubes containing test compounds and incubated for 15 minutes at 37° C. Then, to this mixture was added 1 nM of [^3H]-α-bungarotoxin (α-Bgt) and further incubated for 2 hours. The samples were isolated by vacuum filtration onto Whatman GF/B filters, which were prerinsed with 0.5% polyethylenimine just prior to sample filtration, using Brandel multi manifold cell harvester. The filters were rapidly rinsed with washing solution (10 mM of KH2PO4, 150 mM of NaCl, pH 7.2, room temperature) (5×1 ml). The filters were counted in 3 ml of clearsol I (Nacalai Tesque Inc.). The determination of nonspecific binding was incubated in the presence of 1 μM α-Bgt. […] In the receptor binding experiments, said buffer solution was added for adjusting the final concentration of BSA to be 0.05%.
The analyses of the experimental results were conducted by as described in the Biological Experiment 1.

T1 sequence (P43681 29-627 limits assumed): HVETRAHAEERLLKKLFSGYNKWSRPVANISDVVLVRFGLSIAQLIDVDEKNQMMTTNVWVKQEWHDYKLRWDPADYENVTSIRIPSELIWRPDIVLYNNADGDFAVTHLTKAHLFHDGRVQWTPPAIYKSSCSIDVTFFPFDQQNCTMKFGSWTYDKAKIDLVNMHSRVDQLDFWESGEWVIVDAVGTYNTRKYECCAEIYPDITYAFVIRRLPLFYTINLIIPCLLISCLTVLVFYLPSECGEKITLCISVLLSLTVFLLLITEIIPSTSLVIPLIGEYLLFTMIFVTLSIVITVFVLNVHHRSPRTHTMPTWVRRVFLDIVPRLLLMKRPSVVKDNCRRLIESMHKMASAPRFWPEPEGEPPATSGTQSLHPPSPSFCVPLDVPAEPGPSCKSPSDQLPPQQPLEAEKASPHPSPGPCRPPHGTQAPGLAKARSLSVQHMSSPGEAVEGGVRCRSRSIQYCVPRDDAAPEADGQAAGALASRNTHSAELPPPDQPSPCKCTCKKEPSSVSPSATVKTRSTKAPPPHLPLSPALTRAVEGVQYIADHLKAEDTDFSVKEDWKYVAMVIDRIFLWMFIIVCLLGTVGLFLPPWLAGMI
T1 sequence (P17787 26-502): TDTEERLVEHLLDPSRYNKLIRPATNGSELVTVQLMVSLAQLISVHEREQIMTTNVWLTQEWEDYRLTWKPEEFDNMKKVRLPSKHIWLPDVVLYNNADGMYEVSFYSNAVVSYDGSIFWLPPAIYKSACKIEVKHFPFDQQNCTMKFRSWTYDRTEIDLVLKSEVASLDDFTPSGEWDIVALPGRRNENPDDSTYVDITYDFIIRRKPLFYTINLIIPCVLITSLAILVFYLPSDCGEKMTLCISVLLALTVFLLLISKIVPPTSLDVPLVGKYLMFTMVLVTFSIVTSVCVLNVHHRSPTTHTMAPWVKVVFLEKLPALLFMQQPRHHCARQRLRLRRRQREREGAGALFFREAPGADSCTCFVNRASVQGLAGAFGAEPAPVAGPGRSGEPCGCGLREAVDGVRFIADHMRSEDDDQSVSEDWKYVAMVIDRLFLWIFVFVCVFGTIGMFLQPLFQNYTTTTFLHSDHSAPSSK

Row | Compound | Agonist effect [1] [%] | Ki [2] [µM] | Ki [3] [µM]
1 | CN1CCCC1c1cccnc1 (single isomer, unassigned; (-)) [Nicotine, (−)-nicotine, reference compound] | 146 | – | –
2 | Clc1ccc(CC/N=C2\SCCN2Cc2ccc(Cl)nc2)cn1 [Compound 15, 3-(6-chloro-3-pyridyl)methyl-2-[2-(6-chloro-3-pyridyl)ethyl]iminothiazolidine] | – | 0.086 | 479
